Data: ChEMBL document CHEMBL2331400, “Structure-based design and evaluation of naphthalene diimide G-quadruplex ligands as telomere targeting agents in pancreatic cancer cells” (J Med Chem, 2013)
Active and inactive are the calls of the source. No cut-off for these calls is given here.

Key:
[1] = Selectivity ratio of IC50 for human WI-38 cells to IC50 for human 786-0 cells; type: ADME, cell-based; conditions: WI-38 cells versus 786-0 cells, read-out: Ratio IC50
[2] = test system: WI-38; assay: Cytotoxicity against human WI38 cells assessed as growth inhibition after 96 hrs by SRB assay; type: cell-based; conditions: WI-38, 96 h
[3] = test system: MCF7; assay: Cytotoxicity against human MCF7 cells assessed as growth inhibition after 96 hrs by SRB assay; type: functional, cell-based; conditions: MCF7, 96 h
[4] = test system: 786-0; assay: Cytotoxicity against human 786-0 cells assessed as growth inhibition after 96 hrs by SRB assay; type: functional, cell-based; conditions: 786-0, 96 h
[5] = test system: MIA PaCa-2; assay: Cytotoxicity against human MIAPaCa2 cells assessed as growth inhibition after 96 hrs by SRB assay; type: functional, cell-based; conditions: MIA PaCa-2, 96 h
[6] = Cytotoxicity against human RCC4 cells assessed as growth inhibition after 96 hrs by SRB assay; type: functional, cell-based; conditions: RCC4, 96 h
[7] = test system: A549; assay: Cytotoxicity against human A549 cells assessed as growth inhibition after 96 hrs by SRB assay; type: functional, cell-based; conditions: A549, 96 h
[8] = test system: unidentified; assay: Stabilization of HSP90b promoter sequence 5'-FAM-d(GGGCGGGCCAAAGGGAAGGGG)-TAMRA-3' (unknown origin) assessed as melting temperature at 1 uM by FRET assay
[9] = test system: unidentified; assay: Stabilization of HSP90a promoter sequence 5'-FAM-d(GGGCCAAAGGGAAGGGGTGGG)-TAMRA-3' (unknown origin) assessed as melting temperature at 1 uM by FRET assay
[10] = species on record: Homo sapiens; assay: Stabilization of human telomeric G-quadruplex DNA sequence 5'-FAM-d(GGG[TTAGGG]3)-TAMRA-3' assessed as melting temperature at 1 uM by FRET assay
[11] = test system: unidentified; assay: Stabilization of duplex DNA T-loop (unknown origin) 5'-FAM-dTATAGCTATA-HEG-TATAGCTATA-TAMRA-3' assessed as melting temperature at 1 uM by FRET assay
[12] = test system: MIA PaCa-2; assay: Induction of senescence in human MIAPaCa2 cells at 25 to 50 nM after 7 days by beta-galactosidase assay relative to vehicle-treated control; type: functional, cell-based
[13] = test system: MIA PaCa-2; assay: Inhibition of telomerase activity in human MIAPaCa2 cells assessed as telomere elongation at 25 to 50 nM by TRAP-LIG assay; type: cell-based
[14] = test system: MIA PaCa-2; assay: Inhibition of telomerase activity in human MIAPaCa2 cells assessed as telomere elongation up to 10 uM after 7 days by TRAP-LIG assay; type: cell-based
[15] = test system: MIA PaCa-2; assay: Induction of senescence in human MIAPaCa2 cells at 3.3 to 6.6 nM after 7 days by beta-galactosidase assay relative to vehicle-treated control; type: functional

Row | SMILES | ΔTm [8] | ΔTm [9] | ΔTm [10] | ΔTm [11] | selectivity ratio [1] | IC50 [2] | IC50 [3] | IC50 [4] | IC50 [5] | IC50 [6] | IC50 [7] | Activity [12] | inhibition [13] | inhibition [14] | Activity [15]
1 | CN1CCN(CCCNc2cc3c4c(c(NCCCN5CCN(C)CC5)cc5c4c2C(=O)N(CCCN2CCN(C)CC2)C5=O)C(=O)N(CCCN2CCN(C)CC2)C3=O)CC1 | 32 °C | 36.3 °C | 28.3 °C | 1.3 °C |  | 9000 nM |  |  |  |  |  | Active | inactive |  | 
2 | CN1CCN(CCNc2cc3c4c(c(NCCN5CCN(C)CC5)cc5c4c2C(=O)N(CCCN2CCOCC2)C5=O)C(=O)N(CCCN2CCOCC2)C3=O)CC1 | 31.1 °C | 31.9 °C | 27.8 °C | 8.1 °C |  | 2460 nM | 30 nM |  | 10 nM | 280 nM | < 10 nM |  |  | inactive | 
3 | CN1CCN(CCNc2cc3c4c(c(NCCN5CCN(C)CC5)cc5c4c2C(=O)N(CCN2CCOCC2)C5=O)C(=O)N(CCN2CCOCC2)C3=O)CC1 | 27.6 °C | 30.6 °C | 24.7 °C | 1.7 °C |  | 1170 nM | 180 nM | 1480 nM |  | 5100 nM | 4930 nM |  |  |  | 

Further lines, with some results ahead:

Row | ΔTm [8] | ΔTm [9] | ΔTm [10] | ΔTm [11] | SMILES | selectivity ratio [1] | IC50 [2] | IC50 [3] | IC50 [4] | IC50 [5] | IC50 [6] | IC50 [7] | Activity [12] | inhibition [13] | inhibition [14] | Activity [15]
4 | 0.8 °C | 0.7 °C | 0.1 °C | 0.2 °C | CN1CCN(CCCNc2cc3c4c(c(NCCCN5CCN(C)CC5)cc5c4c2C(=O)N(CC2CCOCC2)C5=O)C(=O)N(CC2CCOCC2)C3=O)CC1 | 10 | 12600 nM | 3120 nM | 1200 nM | 2500 nM | 8380 nM | 2920 nM |  |  |  | 
5 | 21 °C | 27.1 °C | 22.7 °C | 0.2 °C | CN1CCN(CCCNc2cc3c4c(c(NCCCN5CCN(C)CC5)cc5c4c2C(=O)N(CC2CCCO2)C5=O)C(=O)N(CC2CCCO2)C3=O)CC1 (racemic) |  | > 10000 nM | > 10000 nM | > 10000 nM | 5650 nM | > 10000 nM | 5570 nM |  |  | inactive | 
6 | 1.1 °C | 0.9 °C | 0.2 °C | 0.3 °C | CN1CCN(CCCNc2cc3c4c(c(NCCCN5CCN(C)CC5)cc5c4c2C(=O)N(Cc2ccco2)C5=O)C(=O)N(Cc2ccco2)C3=O)CC1 |  | 6840 nM | 2610 nM | 1100 nM | 2830 nM | 3110 nM | 2410 nM |  |  |  | 50%
7 | 29.1 °C | 33.9 °C | 27 °C | 0.8 °C | CN1CCN(CCCNc2cc3c4c(c(NCCCN5CCN(C)CC5)cc5c4c2C(=O)N(CCN2CCOCC2)C5=O)C(=O)N(CCN2CCOCC2)C3=O)CC1 |  | 610 nM | 170 nM | 630 nM | 40 nM | 1750 nM | 1550 nM |  |  |  | 
8 | 23.8 °C | 29 °C | 0.5 °C | 0 °C | COCCCN1C(=O)c2cc(NCCCN3CCN(C)CC3)c3c4c(cc(NCCCN5CCN(C)CC5)c(c24)C1=O)C(=O)N(CCCOC)C3=O |  | 3320 nM | 5620 nM | 7170 nM | 2790 nM | 10500 nM | 2540 nM |  |  | inactive | 
